Results as given in ChEMBL document CHEMBL1151553, “Two novel amino acid derivatives containing side-chain thioamides for the synthesis of photoactivatable peptides” (Bioorg Med Chem Lett, 1997).
Numbered stars: 1 amine (or outer) side, 2 acyl side, 3 side chain; on linkers, the order of the positions; unused ones are H or OH. Square brackets hold non-standard residues; d marks the D form. Peptide text beside a SMILES is read from it. X2 = O=C([C@@H](Cc1ccc(NC(=S)Cc2ccccc2)cc1)N[*:1])[*:2]; X1 = O=C([C@@H](Cc1ccc(NC(=S)c2ccccc2)cc1)N[*:1])[*:2]; hCys = N[C@@H](CCS)C(=O)O

Target: T1, Substance-K receptor (Homo sapiens, UniProt P21452)
T1 sequence (P21452 whole entry): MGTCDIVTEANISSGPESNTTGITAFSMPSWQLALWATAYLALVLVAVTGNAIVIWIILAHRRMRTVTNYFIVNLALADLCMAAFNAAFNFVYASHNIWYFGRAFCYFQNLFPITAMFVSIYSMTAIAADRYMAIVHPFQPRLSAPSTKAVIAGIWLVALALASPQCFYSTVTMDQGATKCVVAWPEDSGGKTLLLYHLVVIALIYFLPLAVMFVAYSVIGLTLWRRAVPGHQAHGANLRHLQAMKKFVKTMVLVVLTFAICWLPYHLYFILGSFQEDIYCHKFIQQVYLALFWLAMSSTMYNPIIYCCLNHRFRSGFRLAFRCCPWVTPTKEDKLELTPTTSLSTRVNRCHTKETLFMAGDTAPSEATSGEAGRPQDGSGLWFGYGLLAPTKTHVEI
Test: Tested for the binding affinity to human NK2 receptor expressed in Sf-9 insect larval cells using 0.1 nM 2-[125 I] iodohistidyl neurokinin A
Format: functional

Row | Compound | IC50 [nM]
1 | CC(C)C[C@H](NC(=O)CNC(=O)[C@@H](NC(=O)[C@H](Cc1ccccc1)NC(=O)[C@H](CO)NC(=O)[C@H](CC(=O)O)NC(=O)[C@@H](NC(=O)[C@H](CCCCN)NC(=O)[C@@H](Cc1ccc(NC(=S)c2ccccc2)cc1)NC(=O)[C@@H](N)Cc1c[nH]cn1)[C@@H](C)O)C(C)C)C(=O)N[C@@H](CCS)C(N)=O (H-H[X1]KTDSFVGL[hCys]-NH2) | 7.72
2 | CC(C)C[C@H](NC(=O)CNC(=O)[C@@H](NC(=O)[C@H](Cc1ccccc1)NC(=O)[C@H](CO)NC(=O)[C@H](CC(=O)O)NC(=O)[C@@H](NC(=O)[C@H](CCCCN)NC(=O)[C@@H](Cc1ccc(NC(=S)Cc2ccccc2)cc1)NC(=O)[C@@H](N)Cc1ccc(O)cc1)[C@@H](C)O)C(C)C)C(=O)N[C@@H](CCS)C(N)=O (H-Y[X2]KTDSFVGL[hCys]-NH2) | 53.4
